Holding throughout (assay): NCI tumour cell line growth inhibition, 48 h
Assay [1] concerns SNB-19 CNS.
For assay [2], the system named is HL-60(TB) leukemia.
For assay [3], the system named is UO-31 renal.
The test system of assay [4] is U251 CNS.
In assay [5] the test system is OVCAR-3 ovarian.
Assay [6] deals with MCF7 breast.
In assay [7] the test system is ACHN renal.
For assay [8], the system named is CCRF-CEM leukemia.
Assay [9] concerns SNB-75 CNS.
Assay [10] has as its system EKVX NSCLC.
Assay [11] relates to HCT-116 colon.
For assay [12], the system named is HCT-15 colon.
Assay [13] deals with OVCAR-4 ovarian.
Assay [14] concerns MALME-3M melanoma.

The source of these data is PubChem BioAssay (NCI).

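Five concentrations, 48 hours, 96-well plates. The concentration for full growth arrest is given as TGI.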 A value given as a limit tells only on which side of the number the result lay.

With `CN(C(=O)C12C3C4C1C1C2C3C41C(=O)O)C(C)(C)C` (stereo not given), the TGI in [1], in [2], in [3], in [4], in assay [5] and in assay [6] was above 100 µM each time. For the same compound, the TGI in [7], in [8], in assay [9], in assay [10], in [11] and in assay [12] was above 100 µM in each case. The compound further yielded a TGI in [13] above 100 µM.
`CN(O)C(=O)c1ccc(OCc2cccc(Cl)c2)cc1`: the TGI in [1] is above 100 µM; in assay [2] it was 22.2 µM; in assay [3], above 66.5 µM; in assay [4] it was above 100 µM; in assay [5], above 100 µM; in assay [6], above 100 µM. Moreover, the TGI was above 68.3 µM in [7]; above 100 µM in assay [8]; above 100 µM in assay [9]; above 100 µM in assay [10]; above 100 µM in assay [11]; above 100 µM in assay [12]. The compound further gave a TGI in assay [13] above 100 µM.
For `COc1ccccc1-c1n[nH]c(-c2ccccc2O)n1`, the TGI in [1], in [2], in assay [3], in assay [4], in assay [5] and in assay [6] was above 100 µM in each case. For the same compound, the TGI in assay [7], in assay [8], in [9], in assay [11], in [12] and in assay [13] was above 100 µM in each case.
For `O=C1CCCSCCCC(=O)CCCSCCC1`, the TGI in assay [1], in assay [2], in assay [3], in [4], in assay [5] and in assay [6] was above 100 µM throughout. Moreover, the TGI in assay [8], in assay [9], in assay [10], in assay [11], in assay [12] and in assay [13] was above 100 µM each time.
Turning to `CCCC[P+](CCCC)(CCCC)C(C(=O)OC)C(C(=O)OC)=C1SC(C(=O)OC)=C(C(=O)OC)S1` (stereo not given), the TGI in assay [1], in assay [3], in assay [4], in assay [5], in [6] and in assay [7] was above 100 µM throughout. For the same compound, the TGI in assay [14], in assay [9], in assay [10], in [11], in [12] and in [13] was above 100 µM in each case.
Consider `[N-]=[N+]=NC1(c2ccccc2)C(=O)c2cccc3c4ccccc4n(c23)C1=O` (stereo not given), for which the TGI in [1], in assay [3], in assay [4], in assay [5], in assay [6] and in assay [7] was above 100 µM in each case. For the same compound, the TGI in assay [8], in [14], in [9], in assay [10], in assay [11] and in [12] was above 100 µM throughout. This compound showed a TGI in assay [13] above 100 µM.
As to `COc1ccc(OC)c2sc(N3C(=O)/C(=C/c4ccc(N(C)C)cc4)N=C3c3ccccc3)nc12`, the TGI is above 100 µM in assay [1]; 64.3 µM in [2]; above 100 µM in assay [3]; above 100 µM in [4]; above 100 µM in [5]; 63.4 µM in assay [6]. Moreover, the TGI is above 100 µM in assay [7]; 24.5 µM in assay [8]; above 100 µM in [9]; above 100 µM in [10]; above 100 µM in assay [11]; above 100 µM in assay [12]. For the same compound, the TGI in [13] was above 100 µM.
`COc1ccc2c(c1)nc1n2C(c2c(F)cccc2F)SC1` (stereo not given): the TGI in assay [1], in [2], in assay [3], in [4], in assay [5] and in assay [6] was above 100 µM in each case. Besides, the TGI in assay [7], in assay [8], in assay [9], in assay [10], in assay [11] and in assay [12] was above 100 µM throughout. For the same compound, the TGI in assay [13] was above 100 µM.
On to `NS(=O)(=O)c1ccc(NC(=S)/N=C/c2c(O)c3ccccc3[nH]c2=O)cc1`, for which the TGI is above 100 µM in [1]; 5.05 µM in assay [2]; above 100 µM in assay [3]; above 100 µM in assay [4]; above 100 µM in assay [5]; above 100 µM in [6]. Besides, the TGI in [7], in assay [8], in assay [9], in [10], in assay [11] and in assay [12] was above 100 µM in each case. The same compound had a TGI in assay [13] above 100 µM.
`O=C(/C=C/c1ccsc1)c1cccs1`: the TGI was above 100 µM in assay [1]; 34.3 µM in assay [3]; 44.2 µM in assay [4]; 57.3 µM in assay [5]; 52.2 µM in assay [6]; above 100 µM in [7]. For the same compound, the TGI is 54.6 µM in assay [8]; above 100 µM in assay [14]; above 100 µM in assay [9]; 99.4 µM in assay [10]; 31.1 µM in [11]; 37 µM in [12]. This compound registered a TGI in assay [13] above 100 µM.
Consider `CNc1nc2c(C)ccc3nc(N(C)C)nc-3c2n1C`, for which the TGI in assay [1], in assay [3], in assay [4], in [5], in assay [6] and in [7] was above 10 µM in each case. The TGI in assay [8], in assay [14], in assay [9], in assay [10], in [11] and in assay [12] was above 10 µM throughout. In assay [13], this compound showed a TGI above 10 µM.
